Test results: ChEMBL document CHEMBL3638630 (2014)

What was measured:
[1] = target: 72 kDa type IV collagenase (Homo sapiens, UniProt P08253); assay: (§1) Inhibition Assay: The inhibition tests and the evaluation of the inhibition constants (Ki) on the various MMPs were carried out as described by Devel et al. (Devel et al. 2006 J. Biol. Chem. (7)).
Collagenase 3 = Collagenase 3 (Homo sapiens, UniProt P45452); assay: as §1
[2] = target: Macrophage metalloelastase (Homo sapiens, UniProt P39900); assay: as §1
[3] = target: Matrix metalloproteinase-14 (Homo sapiens, UniProt P50281); assay: as §1
[4] = target: Matrix metalloproteinase-9 (Homo sapiens, UniProt P14780); assay: as §1
Neutrophil collagenase = Neutrophil collagenase (Homo sapiens, UniProt P22894); assay: as §1
Stromelysin-1 = Stromelysin-1 (Homo sapiens, UniProt P08254); assay: as §1
Stromelysin-2 = Stromelysin-2 (Homo sapiens, UniProt P09238); assay: as §1
Stromelysin-2, sequence (P09238 whole entry): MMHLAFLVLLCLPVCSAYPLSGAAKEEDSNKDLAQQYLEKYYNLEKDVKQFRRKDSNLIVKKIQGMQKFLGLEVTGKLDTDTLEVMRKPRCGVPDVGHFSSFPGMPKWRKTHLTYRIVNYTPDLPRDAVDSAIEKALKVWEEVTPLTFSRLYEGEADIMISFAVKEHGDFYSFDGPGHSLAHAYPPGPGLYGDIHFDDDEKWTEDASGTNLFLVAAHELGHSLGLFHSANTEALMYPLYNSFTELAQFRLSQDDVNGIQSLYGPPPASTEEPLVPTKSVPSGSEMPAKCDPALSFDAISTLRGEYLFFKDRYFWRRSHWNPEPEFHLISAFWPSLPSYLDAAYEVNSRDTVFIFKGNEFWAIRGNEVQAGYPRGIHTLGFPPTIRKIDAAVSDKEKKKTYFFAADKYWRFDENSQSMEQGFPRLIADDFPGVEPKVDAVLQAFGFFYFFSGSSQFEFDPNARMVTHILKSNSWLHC

Matrix metalloproteinase-9, sequence (P14780 whole entry): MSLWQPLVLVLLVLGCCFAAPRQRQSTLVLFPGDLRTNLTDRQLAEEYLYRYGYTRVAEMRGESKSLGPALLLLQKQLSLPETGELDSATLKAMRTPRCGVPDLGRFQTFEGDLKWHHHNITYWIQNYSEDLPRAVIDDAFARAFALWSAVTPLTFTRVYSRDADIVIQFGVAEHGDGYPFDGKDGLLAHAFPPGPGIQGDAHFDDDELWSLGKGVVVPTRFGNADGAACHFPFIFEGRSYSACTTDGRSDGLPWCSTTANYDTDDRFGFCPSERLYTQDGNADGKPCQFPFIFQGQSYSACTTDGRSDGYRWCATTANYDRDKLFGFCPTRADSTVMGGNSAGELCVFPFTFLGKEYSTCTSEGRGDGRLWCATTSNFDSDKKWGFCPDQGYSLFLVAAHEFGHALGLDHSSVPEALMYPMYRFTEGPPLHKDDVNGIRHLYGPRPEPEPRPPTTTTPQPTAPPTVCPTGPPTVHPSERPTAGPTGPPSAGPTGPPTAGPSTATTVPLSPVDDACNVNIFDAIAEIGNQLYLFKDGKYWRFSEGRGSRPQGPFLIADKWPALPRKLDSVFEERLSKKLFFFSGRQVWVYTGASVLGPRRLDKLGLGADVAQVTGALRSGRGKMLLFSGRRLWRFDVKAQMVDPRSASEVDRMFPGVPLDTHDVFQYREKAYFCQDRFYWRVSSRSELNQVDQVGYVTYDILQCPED
72 kDa type IV collagenase, sequence (P08253 whole entry): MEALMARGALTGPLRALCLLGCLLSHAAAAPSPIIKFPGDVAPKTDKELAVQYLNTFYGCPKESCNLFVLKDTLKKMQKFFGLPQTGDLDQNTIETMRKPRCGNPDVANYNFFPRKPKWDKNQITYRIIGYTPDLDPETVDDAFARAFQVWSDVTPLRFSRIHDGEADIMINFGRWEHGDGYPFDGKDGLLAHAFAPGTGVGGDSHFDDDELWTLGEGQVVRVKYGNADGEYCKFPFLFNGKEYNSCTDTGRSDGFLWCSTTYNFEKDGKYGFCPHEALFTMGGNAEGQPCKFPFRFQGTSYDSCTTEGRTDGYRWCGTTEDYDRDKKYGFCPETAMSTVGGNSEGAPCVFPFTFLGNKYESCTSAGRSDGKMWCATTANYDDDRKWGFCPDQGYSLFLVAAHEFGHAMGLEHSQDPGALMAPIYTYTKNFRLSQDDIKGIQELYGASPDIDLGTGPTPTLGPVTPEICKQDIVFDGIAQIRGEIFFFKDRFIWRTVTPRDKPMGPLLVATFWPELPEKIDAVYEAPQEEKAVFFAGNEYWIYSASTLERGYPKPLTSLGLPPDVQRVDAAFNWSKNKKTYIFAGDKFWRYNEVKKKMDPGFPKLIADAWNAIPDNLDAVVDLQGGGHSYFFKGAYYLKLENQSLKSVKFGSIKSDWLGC
Macrophage metalloelastase, sequence (P39900 whole entry): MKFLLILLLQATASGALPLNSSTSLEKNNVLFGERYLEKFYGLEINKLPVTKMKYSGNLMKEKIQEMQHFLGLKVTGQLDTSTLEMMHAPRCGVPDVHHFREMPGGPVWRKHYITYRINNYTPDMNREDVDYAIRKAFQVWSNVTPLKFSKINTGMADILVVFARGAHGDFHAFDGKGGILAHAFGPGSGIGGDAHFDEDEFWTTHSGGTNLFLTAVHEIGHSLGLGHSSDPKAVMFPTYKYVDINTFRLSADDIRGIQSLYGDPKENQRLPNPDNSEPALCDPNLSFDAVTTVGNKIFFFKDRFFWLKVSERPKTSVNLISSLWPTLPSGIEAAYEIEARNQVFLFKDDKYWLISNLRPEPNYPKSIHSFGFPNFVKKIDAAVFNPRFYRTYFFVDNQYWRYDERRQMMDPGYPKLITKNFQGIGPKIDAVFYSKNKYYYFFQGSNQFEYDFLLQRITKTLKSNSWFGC
Stromelysin-1, sequence (P08254 whole entry): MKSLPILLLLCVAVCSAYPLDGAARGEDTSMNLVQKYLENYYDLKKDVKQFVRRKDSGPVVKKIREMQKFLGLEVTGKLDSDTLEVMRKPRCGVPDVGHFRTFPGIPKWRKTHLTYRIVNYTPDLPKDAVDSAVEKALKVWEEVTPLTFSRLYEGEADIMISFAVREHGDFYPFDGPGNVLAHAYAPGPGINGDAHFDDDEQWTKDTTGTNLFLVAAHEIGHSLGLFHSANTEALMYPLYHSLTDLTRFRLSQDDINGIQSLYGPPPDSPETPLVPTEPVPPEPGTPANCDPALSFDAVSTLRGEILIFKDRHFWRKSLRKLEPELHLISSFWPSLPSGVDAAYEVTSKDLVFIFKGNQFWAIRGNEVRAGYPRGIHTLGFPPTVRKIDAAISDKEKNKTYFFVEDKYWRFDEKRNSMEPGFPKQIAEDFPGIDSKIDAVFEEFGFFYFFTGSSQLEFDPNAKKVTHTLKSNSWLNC
Neutrophil collagenase, sequence (P22894 whole entry): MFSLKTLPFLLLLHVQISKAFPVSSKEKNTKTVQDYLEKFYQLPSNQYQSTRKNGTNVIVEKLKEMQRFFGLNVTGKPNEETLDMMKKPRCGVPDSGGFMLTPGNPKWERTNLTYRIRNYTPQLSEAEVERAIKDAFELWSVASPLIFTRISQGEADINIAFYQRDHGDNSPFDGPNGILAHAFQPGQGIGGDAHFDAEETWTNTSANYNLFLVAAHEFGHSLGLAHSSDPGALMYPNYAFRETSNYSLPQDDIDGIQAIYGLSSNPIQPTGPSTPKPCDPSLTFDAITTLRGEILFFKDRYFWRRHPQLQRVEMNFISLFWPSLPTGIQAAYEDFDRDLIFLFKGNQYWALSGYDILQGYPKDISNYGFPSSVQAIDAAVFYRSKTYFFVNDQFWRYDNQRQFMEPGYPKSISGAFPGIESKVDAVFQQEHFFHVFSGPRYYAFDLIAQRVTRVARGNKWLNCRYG

NC(=O)CC[C@H](NC(=O)CCc1ccc(-c2cc(-c3ccccc3)cs2)cc1)C(=O)N[C@@H](CCC(=O)O)C(N)=O
Ki [1]: > 5 µM | Ki (Collagenase 3): > 1 µM | Ki [2]: 0.317 µM | Ki [3]: > 10 µM | Ki [4]: > 5 µM | Ki (Neutrophil collagenase): > 10 µM | Ki (Stromelysin-1): > 10 µM | Ki (Stromelysin-2): > 10 µM
